Source: ChEMBL document CHEMBL5113476, “The protective effects of natural product tunicatachalcone against neuroinflammation via targeting RIPK2 in microglia BV-2 cells stimulated by LPS” (Bioorg Med Chem, 2022)
The source made the active and inactive calls. No cut-off for these calls is given here.

Experiments:
BV-2 [1] = assay: Cytotoxicity against mouse BV-2 cells at 12.5 to 50 uM measured after 24 hrs by MTT assay; format: toxicity, cell-based; conditions: bv-2, 24 h, dose 12.5-50 µM
BV-2 [2] = assay: Anti-neuroinflammatory activity in mouse BV-2 cells assessed as inhibition of LPS-induced NO production at 5 to 20 uM measured after 24 hrs; format: functional, cell-based; conditions: dose 5-20 µM, DDE = dose-dependent effect
BV-2 [3] = assay: Anti-neuroinflammatory activity in mouse BV-2 cells assessed as reduction in LPS-stimulated IL-6 production at 5 to 20 uM measured after 8 hrs by ELISA; format: functional, cell-based; conditions: dose 5-20 µM, DDE = dose-dependent effect
BV-2 [4] = assay: Anti-neuroinflammatory activity in mouse BV-2 cells assessed as reduction in LPS-stimulated TNF-alpha production at 5 to 20 uM measured after 4 hrs by ELISA; format: functional, cell-based; conditions: dose 5-20 µM, DDE = dose-dependent effect
[5] = target: T1, Receptor-interacting serine/threonine-protein kinase 2 (Homo sapiens, UniProt O43353); assay: Binding affinity to recombinant RIPK2 (unknown origin) measured by surface plasmon resonance analysis
T1 sequence (O43353 whole entry): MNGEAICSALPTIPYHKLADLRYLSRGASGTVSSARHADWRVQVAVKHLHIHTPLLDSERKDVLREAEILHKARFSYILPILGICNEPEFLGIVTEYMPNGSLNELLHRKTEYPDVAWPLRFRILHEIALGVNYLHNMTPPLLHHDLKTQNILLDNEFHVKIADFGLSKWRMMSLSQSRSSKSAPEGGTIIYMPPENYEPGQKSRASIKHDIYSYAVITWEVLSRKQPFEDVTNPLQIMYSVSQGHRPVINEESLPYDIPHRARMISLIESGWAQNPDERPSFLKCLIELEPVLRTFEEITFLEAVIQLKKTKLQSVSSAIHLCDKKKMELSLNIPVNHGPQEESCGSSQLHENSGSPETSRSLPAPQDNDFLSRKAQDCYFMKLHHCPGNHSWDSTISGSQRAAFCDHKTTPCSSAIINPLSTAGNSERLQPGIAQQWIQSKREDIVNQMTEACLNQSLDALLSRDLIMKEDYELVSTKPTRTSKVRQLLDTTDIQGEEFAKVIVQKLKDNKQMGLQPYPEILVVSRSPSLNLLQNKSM

[6] = target: T1, Receptor-interacting serine/threonine-protein kinase 2; assay: Binding affinity to recombinant RIPK2 (unknown origin) measured by microscale thermophoresis (MST) assay
[7] = target: Receptor-interacting serine/threonine-protein kinase 2 (Mus musculus) (UniProt P58801); assay: Binding affinity to RIPK2 in mouse BV-2 cells measured by Cellular thermal shift assay (CETSA); format: cell-based
Receptor-interacting serine/threonine-protein kinase 2 (Mus musculus), sequence (P58801 whole entry): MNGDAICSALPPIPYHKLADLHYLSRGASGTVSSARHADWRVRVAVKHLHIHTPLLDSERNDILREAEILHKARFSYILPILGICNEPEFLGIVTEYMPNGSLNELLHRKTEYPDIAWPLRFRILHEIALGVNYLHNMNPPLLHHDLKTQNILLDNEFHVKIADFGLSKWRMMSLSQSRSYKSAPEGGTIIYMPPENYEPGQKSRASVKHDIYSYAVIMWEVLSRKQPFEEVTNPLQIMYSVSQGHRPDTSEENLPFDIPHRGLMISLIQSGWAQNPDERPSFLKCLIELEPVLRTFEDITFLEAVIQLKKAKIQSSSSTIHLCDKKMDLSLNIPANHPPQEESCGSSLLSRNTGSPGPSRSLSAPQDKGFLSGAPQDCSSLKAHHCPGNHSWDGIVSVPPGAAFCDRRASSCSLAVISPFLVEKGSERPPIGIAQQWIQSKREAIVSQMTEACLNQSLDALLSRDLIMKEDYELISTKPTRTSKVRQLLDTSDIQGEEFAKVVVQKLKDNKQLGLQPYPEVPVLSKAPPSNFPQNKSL

- Kd [5]: 5.36 µM
- Kd [6]: 1 µM
- Activity [7]: Active
Structure (SMILES): COC1=CC(=O)C(CC=C(C)C)(CC=C(C)C)C(=O)/C1=C(O)/C=C/c1ccccc1
- Activity (BV-2 [1]): Non-Toxic
- Activity (BV-2 [2]): Dde
- Activity (BV-2 [3]): Dde
- Activity (BV-2 [4]): Dde
